Laboratory results as given in PMC12723204, “Mitochondrial Dysfunction Induced by a Novel Salicylate‐Based 1,2,3‐Triazole Salt With Potent Antileishmanial Activity” (Chemical Biology & Drug Design, 2025).
Entries after “also recorded” stand apart in the source; their conditions may differ.

How the values were obtained:
[1] = system: peritoneal murine macrophages; set-up: method as in Meinel et al. ([2020]); conditions: murine macrophage cells; ref Meinel et al. ([2020]); cited from earlier work
[2] = Cytotoxicity against mammalian cells (MTT); type: cell-based, BALB/c mice; conditions: BALB/c, mouse; peritoneal murine macrophages, 72 h, MTT
Protocol: (§1) After being prepared as previously mentioned, murine peritoneal macrophages obtained from BALB/c mice were either left untreated (negative control) or treated with the compounds (3.125–100.000 μM). Using a spectrophotometer (Multiskan EX, Thermo Electron Corporation, Vantaa, Finland) set to 570 nm, cell viability was assessed after 72 h of treatment using the MTT method (Mosmann [1983]). A cytotoxic concentration for 50% of the cell population (CC50) was used to express the results. The reference medication was miltefosine (Cayman Chemical Company, Ann Arbor, MI, USA). The assays were performed in three independent experiments in duplicate. The selectivity index was calculated by […].

[3] = system: L. amazonensis intracellular amastigotes; experiment: Activity against intracellular amastigote forms of L. amazonensis in peritoneal macrophages (Giemsa counting); type: cell-based, Leishmania amazonensis; conditions: for IC50: Leishmania amazonensis, Peritoneal macrophage, intracellular amastigotes in murine peritoneal macrophages, 72 h; for SI (Selectivity Index): CC50 of peritoneal murine macrophages/IC50 L. amazonensis amastigotes
Protocol: Peritoneal macrophages were obtained from BALB/c mice previously inoculated with 3% thioglycollate medium (da Trindade Granato et al. [2018]). The macrophages (2 × 10^6 cells/mL) were then allowed to adhere in 24‐well culture plates for 16 h at 37°C in a 5% CO2 atmosphere. After rinsing with phosphate‐buffered saline (PBS), the adhered macrophages were infected with stationary‐phase promastigotes of L. amazonensis at a 10:1 parasite‐to‐macrophage ratio for 4 h at 33°C. After several washes to remove non‐adherent promastigotes, the cells were either left untreated (negative control) or treated with the compounds (3.125–100.000 μM). Following a 72 h treatment period, the infected macrophages were fixed in ethanol, stained with Giemsa, and 200 macrophages were counted to determine the number of intracellular amastigotes. The GraFit software was used to determine the IC50, which was the outcome of three separate trials conducted in duplicate.

[4] = Cytotoxicity in human red blood cells (hemolytic assay); type: cell-based; conditions: human erythrocytes (1% suspension), 200.00 μM (maximum concentration tested)
Protocol: (§2) Blood cells were centrifuged at 1500 rpm, the plasma and leukocytes were discarded, and the erythrocytes were washed in PBS. Then, the cells were diluted to a concentration of 1%, plated in 96‐well plates, and untreated or treated with the compound 7 at different concentrations (0.09–200.00 μM). The plate was incubated for 24 h at 37°C, and then centrifuged at 2000 rpm for 1 min. The supernatant was collected, and the absorbance (Abs) was determined in a spectrophotometer (Multiskan EX, Thermo Electron Corporation, Vantaa, Finland) at 540 nm. Untreated cells were considered the negative control. For the positive control, 0.2% saponin in deionized water was used.

[5] = system: L. amazonensis promastigotes; experiment: Activity against promastigotes of L. amazonensis (MTT); type: cell-based; conditions: Leishmania amazonensis, 72 h, read-out: Promastigote IC50
Protocol: Promastigotes of L. amazonensis (IFLA/BR/67/PH8) were cultivated in brain heart infusion ([…] José dos […], Brazil) supplemented with bovine hemin (Sigma-Aldrich, St. Louis, MO, USA), folic acid (Sigma-Aldrich, St. Louis, MO, USA), inactivated fetal bovine serum (Cultilab, São Paulo, Brazil), and penicillin/streptomycin solution (Sigma-Aldrich, St. Louis, MO, USA). The cells were kept at 25°C in a BOD incubator. […] Louis, MO, USA; Mosmann [1983]). The viability of parasites was measured using a spectrophotometer (Multiskan EX-Thermo Electron Corporation, Vantaa, Finland) at 570 nm. The values were expressed as an inhibitory concentration capable of inhibiting 50% (IC50) of cell growth by using GraFit 5 software (Erithacus Software Ltda). […] Paulo, SP, Brazil) were used as reference drugs. All assays were run in triplicate across three separate trials.

[6] = system: peritoneal murine macrophages; experiment: Cytotoxicity against mammalian cells (MTT); type: cell-based, BALB/c mice; conditions: comparator from Meinel et al. [2020]
Protocol: as §1

[7] = system: L. amazonensis promastigotes; experiment: Mitochondrial superoxide (MitoSOX Red); type: cell-based, Leishmania amazonensis; conditions: for increase in mitochondrial superoxide: 6 h
Protocol: (§3) To measure ROS and mitochondrial ROS (superoxide) levels, L. amazonensis promastigotes (5 × 10^6 cells) were exposed to compound 7 (1.25 and 2.50 μM) for 6 and 24 h, following the methodology described by da Trindade Granato et al. ([2018]). Before the incubation, cells were washed with PBS and stained with 1 mM H2DCFDA (Invitrogen, Waltham, MA, USA) to measure total ROS. Fluorescence was measured after a 30‐min incubation with the dye using a fluorimeter (FLx800, BioTek Instruments Inc., Winooski, VT, USA) at an excitation/emission wavelength of 485/528 nm. As a positive control, cells were treated with 62.5 μM H2O2. To quantify mitochondrial superoxide, the MitoSOX Red indicator (Invitrogen, Molecular Probes, Eugene, Oregon, USA) was employed. Leishmania amazonensis promastigotes were treated with compound 7 (1.25 and 2.50 μM) for 6 and 24 h at 25°C. Cells were labeled with MitoSOX Red indicator at 5 μM and incubated for 20 min. Promastigotes incubated with antimycin A (10 μM) were used as the positive control. Fluorescence intensity was evaluated in a spectrofluorometer (FLx800, BioTek Instruments Inc., Winooski, VT, USA) at 540/600 nm of excitation/emission, respectively.

[8] = system: L. amazonensis promastigotes; experiment: Mitochondrial membrane potential (JC-1); type: cell-based, Leishmania amazonensis; conditions: for mitochondrial membrane hyperpolarization: 24 h
Protocol: To evaluate mitochondrial membrane potential (MMP), L. amazonensis promastigotes (5 × 10^6 cells) were exposed to compound 7 (1.25 μM and 2.50 μM) for 6 and 24 h. After incubation, the cells were washed with PBS and stained with 5.00 μM JC‐1 (Coimbra et al. [2019]). After a 40‐min incubation with JC‐1, the cells were washed with Hank's solution, and fluorescence was measured using a fluorimeter (FLx800, BioTek Instruments Inc., Winooski, VT, USA) at excitation/emission wavelengths of 485/528 nm and 540/600 nm to detect fluorescence from monomers and J‐aggregates, respectively. As a positive control, cells were treated with 10.00 μM FCCP (Sigma‐Aldrich, St. Louis, MO, USA). MMP was assessed by calculating the ratio of fluorescence emitted by J‐aggregates to that of monomers.

[9] = system: L. amazonensis promastigotes; experiment: Cell membrane integrity (propidium iodide); type: cell-based, Leishmania amazonensis; conditions: 24 h, 1.25 and 2.50 μM
Protocol: To evaluate cell membrane integrity, L. amazonensis promastigotes (5 × 10^6 cells) were treated with compound 7 (1.25 and 2.50 μM) for 24 h. After incubation, the cells were washed with PBS and stained with 0.20 μg/mL of propidium iodide (PI) (Sigma‐Aldrich, St. Louis, MO, USA) (da Trindade Granato et al. [2018]). Following a 15‐min incubation with PI, fluorescence was measured using a fluorimeter (FLx800) at an excitation/emission wavelength of 540/600 nm. Cells exposed to heat at 65°C for 10 min were used as a positive control.

human erythrocytes = experiment: Cytotoxicity in human red blood cells (hemolytic assay); type: cell-based; conditions: 24 h, 0.09–200.00 μM
Protocol: as §2

[10] = system: L. amazonensis promastigotes; experiment: Total ROS production (H2DCFDA); type: cell-based, Leishmania amazonensis
Protocol: as §3

Row | Compound | CC50 at 72 h [2] | IC50 [3] | IC50 [5] | SI (Selectivity Index) [3] | other results
1 | CCCCCCCCCCn1cc(COCC2CO2)[n+](C)n1.[I-] (stereo not drawn) [1‐decyl‐3‐methyl‐4‐((oxiran‐2‐ylmethoxy)methyl)‐1H‐1,2,3‐triazol‐3‐ium iodide] |  |  |  |  | fold lower cytotoxicity compared to its 4-hydroxy-substituted precursor [1]: approximately 2.5 fold
2 | C[C@@H]1[C@H](O)[C@@H](C)/C=C/C=C/C=C/C=C/C=C/C=C/C=C/[C@H](O[C@@H]2O[C@H](C)[C@@H](O)[C@H](N)[C@@H]2O)C[C@@H]2O[C@](O)(C[C@@H](O)C[C@@H](O)[C@H](O)CC[C@@H](O)C[C@@H](O)CC(=O)O[C@H]1C)C[C@H](O)[C@H]2C(=O)O [Am B, amphotericin B, reference compound] | 0.71 ± 0.22 µM | 85.8 ± 30.4 µM |  |  | hemolysis at 24 h, 200 µM [4]: 95.9%
3 | CCCCCCCCn1cc(COC(=O)c2ccccc2O)nn1 [Compound 2, (1‐Octyl‐1H‐1,2,3‐Triazol‐4‐Yl)methyl 2‐Hydroxybenzoate] | > 150 µM | > 100 µM | > 100 µM |  | 
4 | CCCCCCCCCCn1cc(COC(=O)c2ccccc2O)nn1 [Compound 3, (1‐Decyl‐1H‐1,2,3‐Triazol‐4‐Yl)methyl 2‐Hydroxybenzoate] | 70.2 ± 14.2 µM | > 100 µM | > 100 µM |  | 
5 | CCCCCCCCCCCCn1cc(COC(=O)c2ccccc2O)nn1 [Compound 4, (1‐Dodecyl‐1H‐1,2,3‐Triazol‐4‐Yl)methyl 2‐Hydroxybenzoate] | > 150 µM | > 100 µM | > 100 µM |  | 
6 | CCCCCCCCCCCCCCn1cc(COC(=O)c2ccccc2O)nn1 [Compound 5, (1‐Tetradecyl‐1H‐1,2,3‐Triazol‐4‐Yl)methyl 2‐Hydroxybenzoate] | > 150 µM | > 100 µM | > 100 µM |  | 
7 | CCCCCCCCCCCCCCCCn1cc(COC(=O)c2ccccc2O)nn1 [Compound 6, (1‐Hexadecyl‐1H‐1,2,3‐Triazol‐4‐Yl)methyl 2‐Hydroxybenzoate] | > 150 µM | > 100 µM | > 100 µM |  | 
8 | CCCCCCCCn1cc(COC(=O)c2ccccc2O)[n+](C)n1.[I-] [Compound 7, 1‐Octyl‐4‐(((2‐Hydroxybenzoyl)oxy)methyl)‐3‐Methyl‐1H‐1,2,3‐Triazol‐3‐Ium Iodide] | 111 ± 34.5 µM | 6.23 ± 0.35 µM | 1.26 ± 0.27 µM | 17.81 | fold lower cytotoxicity compared to the 4-hydroxy-substituted precursor previously described [6]: 3.8 fold; increase in mitochondrial superoxide ([7]; 2× IC50 value (2.50 μM)): 62.54%; increase in mitochondrial superoxide ([7]; IC50 value (1.25 μM)): 57.68%; mitochondrial superoxide levels (in words) ([7]; 24 h, 1.25 and 2.50 μM): no alteration; mitochondrial membrane potential (in words) ([8]; 6 h, 1.25 and 2.50 μM): no change; also recorded: without alterations; mitochondrial membrane hyperpolarization ([8]; 2× IC50 value (2.50 μM)): 29.66%; mitochondrial membrane hyperpolarization ([8]; IC50 value (1.25 μM)): 22.00%; membrane integrity, PI staining (in words) [9]: unaffected; also recorded: no significant alterations; hemolysis at 24 h, 200 µM [4]: 3.82%; hemolytic effect (in words) (human erythrocytes): no hemolytic effect; increase in total ROS ([10]; 6 h, 2× IC50 value (2.50 μM)): 56.54%; increase in total ROS ([10]; 6 h, IC50 value (1.25 μM)): 62.81%; increase in total ROS ([10]; 24 h, 2× IC50 value (2.50 μM)): 77.03%; increase in total ROS ([10]; 24 h, IC50 value (1.25 μM)): 79.87%
9 | CCCCCCCCCCn1cc(COC(=O)c2ccccc2O)[n+](C)n1.[I-] [Compound 8, 1‐Decyl‐4‐(((2‐Hydroxybenzoyl)oxy)methyl)‐3‐Methyl‐1H‐1,2,3‐Triazol‐3‐Ium Iodide] | 0.31 ± 0.22 µM | 2.49 ± 0.5 µM | 1.08 ± 0.18 µM | 0.12 | 
10 | CCCCCCCCCCCCn1cc(COC(=O)c2ccccc2O)[n+](C)n1 [Compound 9, 1‐Dodedecyl‐4‐(((2‐Hydroxybenzoyl)oxy)methyl)‐3‐Methyl‐1H‐1,2,3‐Triazol‐3‐Ium Iodide] | 1.34 ± 0.32 µM | 6.31 ± 1.86 µM | 1.58 ± 0.12 µM | 0.21 | 
11 | CCCCCCCCCCCCCCn1cc(COC(=O)c2ccccc2O)[n+](C)n1.[I-] [Compound 10, 1‐Tetradecyl‐4‐(((2‐Hydroxybenzoyl)oxy)methyl)‐3‐Methyl‐1H‐1,2,3‐Triazol‐3‐Ium Iodide] | 2.37 ± 0.82 µM | 5.92 ± 2.24 µM | 1.55 ± 0.34 µM | 0.40 | 
12 | CCCCCCCCCCCCCCCCn1cc(COC(=O)c2ccccc2O)[n+](C)n1.[I-] [Compound 11, 1‐Hexadecyl‐4‐(((2‐Hydroxybenzoyl)oxy)methyl)‐3‐Methyl‐1H‐1,2,3‐Triazol‐3‐Ium Iodide] | 4.01 ± 1.12 µM | 12.4 ± 1.86 µM | 1.72 ± 0.02 µM | 0.32 | 
13 | CCCCCCCCCCCCCCCCOP(=O)([O-])OCC[N+](C)(C)C [Miltefosine, reference compound] | 151.81 ± 0.03 µM | 11.5 ± 1.79 µM | 15.1 ± 2.08 µM |  | hemolysis at 24 h, 200 µM [4]: 95.9%
